Measurements from patent publication US8038984B2, “Membrane-permeant peptide complexes for treatment of sepsis” (Washington University, priority 1998, dated 2011).
Square brackets hold non-standard residues; d marks the D form. Ends that are not written are not given here. dOrn = NCCC[C@@H](N)C(=O)O; βAla = NCCC(=O)O

Tests used:
human lymphocytes [1] = assay: Laser scanning confocal microscopy of internalization into human lymphocytes; type: cell-based; details: 1 μM
Experimental: Freshly isolated human lymphocytes were incubated with fluorescently labeled Tat-BH4 peptide to confirm intracellular localization of the functional permeant peptide. For labeling, cells were suspended for 30 minutes in modified Earl's balanced salt solution containing 1 μM of the fluorescently labeled TAT-BH4. Control cells were treated identically except no labeled TAT-BH4 was added. Following fixation for 10 minutes in 4% paraformaldehyde, cells were analyzed for peptide internalization via detection of fluorescence by confocal microscopy using an inverted Zeiss Axiovert 200 laser scanning confocal microscope couple to a Zeiss LSM 5 PASCAL fitted with a 488 nm excitation Argon laser and a 520 nm bandpass emission filter. All images were obtained using a water immersion lens (40×) and identical instrument settings.

human lymphocytes [2] = assay: E. coli bacterial-induced lymphocyte apoptosis, staining for active caspase 3; type: cell-based; details: human lymphocytes, live E. coli ~5 hours
Experimental: (§1) Thymocytes and splenocytes were obtained from CLP and sham-treated mice ˜20 hours postoperatively. The APO-BRDU™ kit (Phoenix Flow Systems, San Diego, Calif.) was employed for flow cytometric quantitation of TUNEL. Antibodies to active caspase 3 (Cell Signaling—Catalog #9664) were used in the flow cytometry and/or TUNEL assay.
Lymphocytes were harvested from peripheral blood obtained from 6 healthy volunteers using a ficol gradient separation technique. Approximately 1×10^6 lymphocytes were plated in individual transwell containers. E. coli bacteria (strain ATCC 25922), that had been grown overnight in trypticase soy broth were added to a separate compartment of the transwell chamber separated from direct contact with the lymphocytes by a 0.02 micron filter (25 μl of bacteria at 3×10^9 CFUs added to 1 ml volume.

[3] = tested on: sepsis-induced lymphocyte apoptosis; assay: Cecal ligation and puncture (CLP) sepsis model, lymphocyte apoptosis by active caspase 3; type: in vivo, C57BL6/J mice; details: mice, 1 mg by mini-osmotic pump plus additional 9.5 mg dose i.p.
Experimental: C57BL6/J male mice were housed for at least one week before manipulations. Mice were anesthetized with halothane and an abdominal incision was performed. The cecum was identified, ligated, and punctured with a #30 gauge needle. The abdomen was closed in two layers and 1 cc of 0.9% saline was administered subcutaneously.
as §1
The pumps were implanted approximately 3 hours prior to CLP because it requires ˜3 hours for pumps to activate and deliver steady state levels of compound.
The pumps were not activated until approximately three hours after implantation. […] Spleens, thymi and blood were harvested and examined for apoptosis via staining for active caspase 3.

(d) ac-C(FM)RKKRR-Orn-RRR-β-A-(I)-SNRELVVDFLSYKLSQKGYS-COOH ([dR][dK][dK][dR][dR][dOrn][dR][dR][dR][βAla]SNRELVVDFLSYKLSQKGYS-OH; not fully specified (N-terminus)) [fluorescein conjugated TAT-BH4]
internalization into human lymphocytes (human lymphocytes [1]): located intracellular

(d)-Ac-RKKRR-Orn-RRR-β-A-(l)-SNRELVVDFLSYKLSQKGYS-COOH (Ac-[dR][dK][dK][dR][dR][dOrn][dR][dR][dR][βAla]SNRELVVDFLSYKLSQKGYS-OH; SMILES CC(=O)N[C@H](CCCNC(=N)N)C(=O)N[C@H](CCCCN)C(=O)N[C@H](CCCCN)C(=O)N[C@H](CCCNC(=N)N)C(=O)N[C@H](CCCNC(=N)N)C(=O)N[C@H](CCCN)C(=O)N[C@H](CCCNC(=N)N)C(=O)N[C@H](CCCNC(=N)N)C(=O)N[C@H](CCCNC(=N)N)C(=O)NCCC(=O)N[C@@H](CO)C(=O)N[C@@H](CC(N)=O)C(=O)N[C@@H](CCCNC(=N)N)C(=O)N[C@@H](CCC(=O)O)C(=O)N[C@@H](CC(C)C)C(=O)N[C@H](C(=O)N[C@H](C(=O)N[C@@H](CC(=O)O)C(=O)N[C@@H](Cc1ccccc1)C(=O)N[C@@H](CC(C)C)C(=O)N[C@@H](CO)C(=O)N[C@@H](Cc1ccc(O)cc1)C(=O)N[C@@H](CCCCN)C(=O)N[C@@H](CC(C)C)C(=O)N[C@@H](CO)C(=O)N[C@@H](CCC(N)=O)C(=O)N[C@@H](CCCCN)C(=O)NCC(=O)N[C@@H](Cc1ccc(O)cc1)C(=O)N[C@@H](CO)C(=O)O)C(C)C)C(C)C) [TAT-BH4]
bacterial-induced apoptosis (human lymphocytes [2]; 500 nM): significant decrease
bacterial-induced apoptosis (human lymphocytes [2]; 1 μM): significant decrease
sepsis-induced CD3 T cell and B cell apoptosis in the spleen [3]: ameliorated the increase
